Consider two molecules from patent publication EP3033433B1, “DETECTION OF ORGANOPHOSPHATE RESISTANCE IN CRUSTACEANS” (priority 2013, dated 2015).

The structures appear in SMILES notation. In brackets after ≈: the same amount, converted by molar mass. Read-outs that look alike come from different tables or passages of the source.

In experiment [1] the target is Phe371Tyr, Drosophila amino acid sequence (Drosophila melanogaster, UniProt P07140, F409Y). The following applies: Phe371Tyr mutant versus wild type enzyme; cited from earlier work.
In experiment [2] the test system is sea lice (L. salmonis). As to the kind of experiment: Bioassay of sea lice strains' sensitivity to azamethiphos (exposure to increasing concentrations). The class given is in vivo. Particulars: Lepeophtheirus salmonis. An excerpt:
(§1) The parasites had to be tested by a bioassay method, i.e. exposure to increasing concentrations of the agent to see how much they tolerated. As no bioassay method for salmon lice sensitivity towards azamethiphos was published, an unpublished protocol had to be used, with necessary adaptations. To be on the safe side, small scale laboratory treatments with fish infected with parasites containing only the wild-type enzyme versus fish infected with parasites containing the mutation were also successfully performed and confirmed the bioassay results.
The sensitivity of the strains analyzed was tested by traditional bioassays and small scale treatments (Helgesen et al., 2013). The history of the strains were LSAlta: Sampled 2010, inbred for approx. 10 generations. Fully sensitive to all agents LSBjugn: Sampled 2008, inbred for approx. 15 generations. Moderately resistant to azamethiphos, pyrethroids and emamectin benzoate. LSGulen: Sampled in 2004, inbred for approx. 25 generations. Fully sensitive to all agents LSHitra: Sampled in 2011. Resistant towards azamethiphos (not tested for other agents). Inbred for approx. 7 generations. LSHitra-s: Subset of LSHitra where fish with parasites were treated with 100 ppb azamethiphos (Salmosan™) for 30 minutes in a 200 liter fibre-glass tank. The subset is the surviving parasites after treatment. LSVeso: Sampled in 2012 in the field (Otterøya) shortly after a full-scale treatment with azamethiphos in the farm. Only surviving parasites were sampled.

In experiment [3] the test system is sea lice (L. salmonis). Put plainly: Small scale laboratory treatment of fish infected with salmon lice. Type of experiment: in vivo, Lepeophtheirus salmonis. The following applies: 100 ppb azamethiphos.
Source text: as §1
The strains were: LSAlta: Sampled 2010, inbred for approx. 10 generations. No history of insensivity towards azamethiphos. LSBjugn: Sampled 2008, inbred for approx. 15 generations. History of insensitivity towards azamethiphos. LSGulen: Sampled in 2004, inbred for approx. 25 generations. No history of insensivity towards azamethiphos. LSHitra: Sampled in 2011, inbred for approx. 7 generations. History of insensitivity towards azamethiphos. LSHitra-s: Subset of LSHitra where fish with parasites were treated with 100 ppb azamethiphos (Salmosan™) for 30 minutes in a 200 liter fibre-glass tank. The subset is the surviving parasites after treatment. […]
The sensitivity of the strains analyzed was tested by traditional bioassays and small scale treatments (Helgesen et al., 2013). […]

Experiment [4] deals with acetyl cholin esterase from sea lice (L. salmonis). The following applies: within 2 minutes, 0.01 µM azamethiphos, samples collected 2000 - 2002, cited from earlier work.

Take `CCOP(=O)(OCC)Oc1ccc([N+](=O)[O-])cc1` [paraoxon]: in experiment [1], the “decrease the sensitivity of the enzyme” value is 200 fold.
For `COP(=O)(OC)SCn1c(=O)oc2cc(Cl)cnc21` [azamethiphos, S-[(6-Chloro-2-oxo[1,3]oxazolo[4,5-b]pyridin-3(2H)-yl)methyl]O,O-dimethyl phosphorothioate], the EC50 is 2.1 ng/mL with sea lice (L. salmonis) [2] (strain LSAlta); 4.5 ng/mL (≈ 0.0139 µM) in the experiment with sea lice (L. salmonis) [2] (strain LSBjugn, read-out: EC50); 1.8 ng/mL (≈ 0.00554 µM) in the experiment on sea lice (L. salmonis) [2] (strain LSGulen, read-out: EC50); 60 ng/mL (≈ 0.185 µM) in the experiment on sea lice (L. salmonis) [2] (strain LSHitra, read-out: EC50); > 100 ng/mL in the experiment on sea lice (L. salmonis) [2] (strain LSVeso, tested at only one concentration, read-out: EC50). Moreover, the “Treatment efficacy (%) mean” value in the experiment with sea lice (L. salmonis) [3] (strain LSAlta (fully sensitive)) came to 100%; in the experiment with sea lice (L. salmonis) [3] (strain LSHitra (resistant)), 50%. Further, the “acetyl cholin esterase inhibited” value in experiment [4] (samples with bi-exponential decline rate (most likely heterozygot resistant), activity remained at this level) is “approx. 80%”. In addition, the enzyme activity inhibited result in experiment [4] (samples with mono-exponential decline rate (most likely wild type)) is “inhibited completely”.
